From patent publication US12312355B2, “1H-[1, 2, 3]triazolo[4, 5-h] quinazoline compounds acting as protein kinase inhibitors” (CHENGDU CYNOGEN BIO-PHARMACEUTICAL TECHNOLOGY CO., LTD., priority 2019, dated 2025)
Counter-ions that a name gives are not always drawn.

Experiments:
Type in all cases: biochemical
Conditions in all cases: class symbols
CDK6/cyclin D3 = CDK6/cyclin D3 (Homo sapiens (Human), UniProt Q00534); experiment: Kinase activity assay, Caliper Mobility Shift Assay, CDK6/cyclin D3
CDK4/cyclin D3 = CDK4/cyclin D3 (Homo sapiens (Human), UniProt P11802); experiment: Kinase activity assay, Caliper Mobility Shift Assay, CDK4/cyclin D3
Experimental: The inhibitory effect of the compound on the kinase CDK4/cyclin D3 was tested by the Caliper Mobility Shift Assay method. The final test concentration of the compound was 10 concentrations, which started from […] and were obtained by three-fold dilution. 5 μL of 5-fold final concentration compound and 10 μL of CDK4/Cyclin D3 kinase solution with final concentration of 10 nM were added to the 384-well reaction plate respectively, and pre incubated at room temperature for 10 minutes (the negative control well contained 10 μL kinase buffer and 5 μL 5% DMSO; the positive control well contained 10 μL kinase solution and 5 μL 5% DMSO). The mixture of 10 μL ATP with a final concentration of 250 μM and the corresponding substrate peptide was added to initiate the reaction, and the mixture was reacted at room temperature for 150 minutes. 30 μL of stop test solution containing EDTA was added to stop the kinase reaction. Conversion rate was read by Caliper EZ Reader. Conversion inhibition rate %=(average conversion rate of positive control %−sample conversion rate %)/(average conversion rate of positive control %−average conversion rate of negative control %). Wherein: the negative control well represents conversion rate reading of wells without enzyme activity; the positive control well represents conversion rate reading of wells without compound inhibition. The log value of concentration was taken as the X-axis and the percentage inhibition rate was the Y-axis. […] Calculation formula: Y=Bottom+(Top−Bottom)/(1+10^((Log IC50−X)*HillSlope)).

CDK2/cyclin A2 = CDK2/cyclin A2 (Homo sapiens (Human), UniProt P24941); experiment: Kinase activity assay, Caliper Mobility Shift Assay, CDK2/cyclin A2
Experimental: The inhibitory effect of the compound on the kinase CDK4/cyclin D3 was tested by the Caliper Mobility Shift Assay method. The final test concentration of the compound was 10 concentrations, which started from […] and were obtained by three-fold dilution. 5 μL of 5-fold final concentration compound and 10 μL of CDK4/Cyclin D3 kinase solution with final concentration of 10 nM were added to the 384-well reaction plate respectively, and pre incubated at room temperature for 10 minutes (the negative control well contained 10 μL kinase buffer and 5 μL 5% DMSO; the positive control well contained 10 μL kinase solution and 5 μL 5% DMSO). The mixture of 10 μL ATP with a final concentration of 250 μM and the corresponding substrate peptide was added to initiate the reaction, and the mixture was reacted at room temperature for 150 minutes. 30 μL of stop test solution containing EDTA was added to stop the kinase reaction. Conversion rate was read by Caliper EZ Reader. Conversion inhibition rate %=(average conversion rate of positive control %−sample conversion rate %)/(average conversion rate of positive control %−average conversion rate of negative control %). Wherein: the negative control well represents conversion rate reading of wells without enzyme activity; the positive control well represents conversion rate reading of wells without compound inhibition. The log value of concentration was taken as the X-axis and the percentage inhibition rate was the Y-axis. The dose-effect curve was fitted by log(inhibitor) vs. response—Variable slope of the analysis software GraphPad Prism 5, and the IC50 value of each compound on the enzyme activity was obtained. Calculation formula: Y=Bottom+(Top−Bottom)/(1+10^((Log IC50−X)*HillSlope)).
The IC50 values of the compounds of the present disclosure for CDK6/cyclin D3 and CDK2/cyclin A2 were tested in a similar manner.

Chain of CDK4/cyclin D3 (P11802 whole entry, species assumed): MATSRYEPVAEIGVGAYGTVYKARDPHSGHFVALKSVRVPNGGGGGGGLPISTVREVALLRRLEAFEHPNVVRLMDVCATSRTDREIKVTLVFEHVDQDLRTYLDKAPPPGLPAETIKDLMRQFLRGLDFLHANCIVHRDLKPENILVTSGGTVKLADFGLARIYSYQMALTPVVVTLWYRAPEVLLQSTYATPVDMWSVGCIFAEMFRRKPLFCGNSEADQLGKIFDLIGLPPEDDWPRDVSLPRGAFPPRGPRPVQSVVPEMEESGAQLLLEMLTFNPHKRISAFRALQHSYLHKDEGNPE
Chain of CDK4/cyclin D3 (P30281 whole entry partner, species assumed): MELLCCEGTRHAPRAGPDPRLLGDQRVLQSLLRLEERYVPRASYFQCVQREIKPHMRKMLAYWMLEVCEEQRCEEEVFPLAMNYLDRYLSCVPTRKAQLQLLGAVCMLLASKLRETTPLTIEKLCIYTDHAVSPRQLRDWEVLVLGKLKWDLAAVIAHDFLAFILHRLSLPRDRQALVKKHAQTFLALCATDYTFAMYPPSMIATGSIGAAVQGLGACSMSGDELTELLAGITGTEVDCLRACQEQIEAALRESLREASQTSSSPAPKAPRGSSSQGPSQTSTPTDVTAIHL
Chain of CDK6/cyclin D3 (Q00534 whole entry, species assumed): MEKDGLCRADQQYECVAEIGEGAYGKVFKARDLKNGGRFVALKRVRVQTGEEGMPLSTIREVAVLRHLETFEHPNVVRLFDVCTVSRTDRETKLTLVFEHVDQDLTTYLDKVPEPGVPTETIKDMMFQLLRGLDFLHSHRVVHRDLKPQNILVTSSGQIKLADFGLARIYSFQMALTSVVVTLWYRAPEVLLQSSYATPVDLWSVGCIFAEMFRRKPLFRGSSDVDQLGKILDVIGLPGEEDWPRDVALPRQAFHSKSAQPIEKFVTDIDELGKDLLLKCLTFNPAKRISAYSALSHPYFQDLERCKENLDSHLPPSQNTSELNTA
Chain of CDK6/cyclin D3 (P30281 whole entry partner, species assumed): as the sequence (P30281 whole entry partner, species assumed) above

SMILES | IC50 (CDK6/cyclin D3) | IC50 (CDK4/cyclin D3) | IC50 (CDK2/cyclin A2)
CC(C)n1nnc2ccc3cnc(Nc4ccc(N5CCNCC5=O)cn4)nc3c21 [Compound I-14, 1-(6-((1-Isopropyl-1H-[1,2,3]triazolo[4,5-h]quinazolin-8-yl)amino)pyridin-3-yl)piperazin-2-one hydrochloride] | 10 to 50 nM | < 10 nM | –
CC(C)n1nnc2ccc3cnc(Nc4ccc(N5CCN(C)CC5)c(F)c4)nc3c21 [Compound I-33, N-(3-Fluoro-4-(4-methylpiperazin-1-yl)phenyl)-1-isopropyl-1H-[1,2,3]triazolo[4,5-h]quinazolin-8-amine] | < 10 nM | < 10 nM | < 10 nM
Cc1nc(Nc2ncc3ccc4nnn(C(C)C)c4c3n2)ccc1N1CCNCC1 [Compound I-3, 1-Isopropyl-N-(6-methyl-5-(piperazin-1-yl)pyridin-2-yl)-1H-[1,2,3]triazolo[4,5-h]quinazolin-8-amine hydrochloride] | < 10 nM | < 10 nM | –
CC(C)Cn1nnc2ccc3cnc(Nc4ccc(N5CCN(C)CC5)cn4)nc3c21 [Compound I-19, 1-Isobutyl-N-(5-(4-methylpiperazin-1-yl)pyridin-2-yl)-1H-[1,2,3]triazolo[4,5-h]quinazolin-8-amine hydrochloride] | 10 to 50 nM | < 10 nM | –
CC(C)n1nnc2ccc3cnc(Nc4ccc(N5CCC(CCCO)CC5)cc4)nc3c21 [Compound I-27, 3-(1-(4-((1-isopropyl-1H-[1,2,3]triazolo [4,5-h]quinazolin-8-yl)amino)phenyl)pi-peridin-4-yl)propan-1-ol] | 50 to 100 nM | 50 to 100 nM | 50 to 100 nM
CC(C)n1nnc2ccc3cnc(Nc4ccc(N5CCNCC5)cn4)nc3c21 [Compound I-1, 1-Isopropyl-N-(5-(piperazin-1-yl)pyridin-2-yl)-1H-[1,2,3]triazolo[4,5-h]quinazolin-8-amine hydrochloride] | < 10 nM | < 10 nM | –
COc1ccc2cc(Nc3ncc4ccc5nnn(C(C)C)c5c4n3)ccc2n1 [Compound I-16, 1-Isopropyl-N-(2-methoxyquinolin-6-yl)-1H-[1,2,3]triazolo[4,5-h]quinazolin-8-amine hydrochloride] | < 10 nM | < 10 nM | –
c1cc(Nc2ncc3ccc4nnn(C5CCCC5)c4c3n2)ncc1N1CCNCC1 [Compound I-22, 1-Cyclopentyl-N-(5-(piperazin-1-yl)pyridin-2-yl)-1H-[1,2,3]triazolo[4,5-h]quinazolin-8-amine hydrochloride] | < 10 nM | < 10 nM | –
CC(C)N1CCN(c2ccc(Nc3ncc4ccc5nnn(C(C)C)c5c4n3)nc2)CC1 [Compound I-7, 1-Isopropyl-N-(5-(4-isopropylpiperazin-1-yl)pyridin-2-yl)-1H-[1,2,3]triazolo [4,5-h]quinazolin-8-amine hydrochloride] | < 10 nM | < 10 nM | –
CCN1CCN(c2ccc(Nc3ncc4ccc5nnn(C(C)C)c5c4n3)nc2)CC1 [Compound I-5, N-(5-(4-Ethylpiperazin-1-yl)pyridin-2-yl)-1-isopropyl-1H-[1,2,3]triazolo[4,5-h]quinazolin-8-amine hydrochloride] | < 10 nM | < 10 nM | –
CCN1CCN(c2ccc(Nc3ncc4ccc5nnn(CC(C)C)c5c4n3)nc2)CC1 [Compound I-20, N-(5-(4-Ethylpiperazin-1-yl)pyridin-2-yl)-1-isobutyl-1H-[1,2,3]triazolo[4,5-h] quinazolin-8-amine] | 10 to 50 nM | < 10 nM | –
CC(C)Cn1nnc2ccc3cnc(Nc4ccc(N5CCOCC5)cn4)nc3c21 [Compound I-21, 1-Isobutyl-N-(5-morpholinopyridin-2-yl)-1H-[1,2,3]triazolo[4,5-h]quinazolin-8-amine] | 50 to 100 nM | 10 to 50 nM | –
CC(C)n1nnc2ccc3cnc(Nc4ccc(N5CCS(=O)(=O)CC5)cn4)nc3c21 [Compound I-15, 4-(6-((1-Isopropyl-1H-[1,2,3]triazolo[4,5-h]quinazolin-8-yl)amino)pyridin-3-yl)thiomorpholine 1,1-dioxide hydrochloride] | 10 to 50 nM | < 10 nM | –
CC(C)n1nnc2ccc3cnc(Nc4ccc(N5CCOCC5)cn4)nc3c21 [Compound I-6, 1-Isopropyl-N-(5-morpholinopyridin-2-yl)-1H-[1,2,3]triazolo[4,5-h]quinazo-lin-8-amine hydrochloride] | 10 to 50 nM | < 10 nM | –
CC(C)n1nnc2ccc3cnc(Nc4ccc(N5CC6(CCNCC6)C5)cn4)nc3c21 [Compound I-17, N-(5-(2,7-Diazaspiro[3.5]nonan-2-yl)pyridin-2-yl)-1-isopropyl-1H-[1,2,3]tri-azolo[4,5-h]quinazolin-8-amine hydrochloride] | 10 to 50 nM | < 10 nM | –
CC(C)Cn1nnc2ccc3cnc(Nc4ccc(N5CCNCC5)cn4)nc3c21 [Compound I-18, 1-Isobutyl-N-(5-(piperazin-1-yl)pyridin-2-yl)-1H-[1,2,3]triazolo[4,5-h]quina-zolin-8-amine] | 10 to 50 nM | < 10 nM | –
CN1CCN(c2ccc(Nc3ncc4ccc5nnn(C6CCCC6)c5c4n3)nc2)CC1 [Compound I-23, 1-Cyclopentyl-N-(5-(4-methylpiperazin-1-yl)pyridin-2-yl)-1H-[1,2,3]triazolo[4,5-h] quinazolin-8-amine] | 10 to 50 nM | < 10 nM | –
CC(C)n1nnc2ccc3cnc(Nc4ccc(N5CCN(C6CC6)CC5)cn4)nc3c21 [Compound I-8, N-(5-(4-Cyclopropylpiperazin-1-yl)py-ridin-2-yl)-1-isopropyl-1H-[1,2,3]tri-azolo[4,5-h]quinazolin-8-amine hydrochloride] | 10 to 50 nM | < 10 nM | –
Cc1cc(Nc2ncc3ccc4nnn(C(C)C)c4c3n2)ncc1N1CCNCC1 [Compound I-2, 1-Isopropyl-N-(4-methyl-5-(piperazin-1-yl)pyridin-2-yl)-1H-[1,2,3]triazolo[4,5-h]quinazolin-8-amine hydrochloride] | 50 to 100 nM | 10 to 50 nM | –
CC(C)n1nnc2ccc3cnc(Nc4ccc(N5CCNCC5)nn4)nc3c21 [Compound I-13, 1-Isopropyl-N-(6-(piperazin-1-yl)pyri-dazin-3-yl)-1H-[1,2,3]triazolo[4,5-h]quin-azolin-8-amine hydrochloride] | 10 to 50 nM | < 10 nM | –
CC(C)CN1CCN(c2ccc(Nc3ncc4ccc5nnn(C(C)C)c5c4n3)nc2)CC1 [Compound I-9, N-(5-(4-Isobutylpiperazin-1-yl)pyridin-2-yl)-1-isopropyl-1H-[1,2,3]triazolo [4,5-h]quinazolin-8-amine hydrochloride] | < 10 nM | < 10 nM | –
CC(C)n1nnc2ccc3cnc(Nc4ccc(N5CCN(C)CC5)cn4)nc3c21 [Compound I-4, 1-Isopropyl-N-(5-(4-methylpiperazin-1-yl)pyridin-2-yl)-1H-[1,2,3]triazolo[4,5-h]quinazolin-8-amine hydrochloride] | < 10 nM | < 10 nM | –
CC(C)n1nnc2ccc3cnc(Nc4ccc(N5CCC(N(C)C)CC5)cn4)nc3c21 [Compound I-11, N-(5-(4-(Dimethylamino)piperidin-1-yl)pyridin-2-yl)-1-isopropyl-1H-[1,2,3] triazolo[4,5-h]quinazolin-8-amine hydrochloride] | < 10 nM | < 10 nM | –
CCN1CCN(Cc2ccc(Nc3ncc4ccc5nnn(C(C)C)c5c4n3)nc2)CC1 [Compound I-10, N-(5-((4-Ethylpiperazin-1-yl)methyl)pyridin-2-yl)-1-isopropyl-1H-[1,2,3]tri-azolo[4,5-h]quinazolin-8-amine hydrochloride] | 10 to 50 nM | < 10 nM | –
CC(C)n1nnc2ccc3cnc(Nc4ccc(C5CCNCC5)cn4)nc3c21 [Compound I-12, 1-Isopropyl-N-(5-(piperidin-4-yl)pyri-din-2-yl)-1H-[1,2,3]triazolo[4,5-h]quin-azolin-8-amine hydrochloride] | < 10 nM | < 10 nM | –
